In ChEMBL document CHEMBL1201862, “PubChem BioAssay data set” (2004):
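Five concentrations, 48 hours, 96-well plates. Here, GI50 denotes the concentration required for 50% inhibition of growth.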 Activity calls are given as the source filed them. No stated cut-off is given here; in the data, active = GI50 up to about 1.1 µM and inactive = higher.

Experiments:
Assay in all cases: DTP human tumour cell line panel, 48 h
NCI-H226 = tested on: NCI-H226
KM12 = tested on: KM12
NCI-H23 = tested on: NCI-H23
RPMI-8226 = tested on: RPMI-8226
UACC-257 = tested on: UACC-257
OVCAR-4 = tested on: OVCAR-4
IGROV-1 = tested on: IGROV-1
CCRF-CEM = tested on: CCRF-CEM
Hs-578T = tested on: Hs-578T
SF-268 = tested on: SF-268
UACC-62 = tested on: UACC-62
SNB-75 = tested on: SNB-75
UO-31 = tested on: UO-31
A549 = tested on: A549
NCI/ADR-RES = tested on: NCI/ADR-RES
786-0 = tested on: 786-0
SR = tested on: SR
CAKI-1 = tested on: CAKI-1
BT-549 = tested on: BT-549
HOP-92 = tested on: HOP-92

SMILES	GI50 (NCI-H226)	GI50 (KM12)	GI50 (NCI-H23)	GI50 (RPMI-8226)	GI50 (UACC-257)	GI50 (OVCAR-4)	GI50 (IGROV-1)	GI50 (CCRF-CEM)	GI50 (Hs-578T)	GI50 (SF-268)	GI50 (UACC-62)	GI50 (SNB-75)	GI50 (UO-31)	GI50 (A549)	GI50 (NCI/ADR-RES)	GI50 (786-0)	GI50 (SR)	GI50 (CAKI-1)	GI50 (BT-549)	GI50 (HOP-92)
COc1cc2oc(=O)cc(C)c2c(OC)c1O	> 100 µM (inactive)	> 100 µM (inactive)	> 100 µM (inactive)	> 100 µM (inactive)	> 100 µM (inactive)	> 100 µM (inactive)	> 100 µM (inactive)	> 100 µM (inactive)	25.2 µM (inactive)	> 100 µM (inactive)	> 100 µM (inactive)	> 100 µM (inactive)	> 100 µM (inactive)	> 100 µM (inactive)	> 100 µM (inactive)	> 100 µM (inactive)	> 100 µM (inactive)			
O=C(/C=C1/Nc2ccc([N+](=O)[O-])cc2N/C1=C/C(=O)c1ccccc1)c1ccccc1	23.4 µM (inactive)	59.4 µM (inactive)	12.4 µM (inactive)		> 100 µM (inactive)	5.6 µM (inactive)	25.3 µM (inactive)	10.6 µM (inactive)		15.2 µM (inactive)	12.6 µM (inactive)	16.9 µM (inactive)	18.6 µM (inactive)	36.3 µM (inactive)	18.3 µM (inactive)	18.3 µM (inactive)	27.5 µM (inactive)	26.7 µM (inactive)	18.5 µM (inactive)	
C[N+]1(CCNP(=S)(NCC[N+]2(C)Cc3c(ccc4c3OCO4)C3C2c2cc4c(cc2C[C@@H]3O)OCO4)NCC[N+]2(C)Cc3c(ccc4c3OCO4)C3C2c2cc4c(cc2C[C@@H]3O)OCO4)Cc2c(ccc3c2OCO3)C2C1c1cc3c(cc1C[C@H]2O)OCO3 (some centres undefined)	2.42 µM (inactive)	< 0.00191 µM (active)	< 0.00191 µM (active)	< 0.00191 µM (active)	< 0.00191 µM (active)	< 0.00191 µM (active)	< 0.00191 µM (active)	1.27 µM (inactive)		< 0.00191 µM (active)	< 0.00191 µM (active)	< 0.00191 µM (active)	< 0.00191 µM (active)	< 0.00191 µM (active)		< 0.00191 µM (active)	< 0.00191 µM (active)	13.2 µM (inactive)		< 0.00191 µM (active)
OC1c2[nH]c3ccccc3c2CCN2CCCCC12 (centres undefined)	> 100 µM (inactive)	> 100 µM (inactive)	> 100 µM (inactive)	> 100 µM (inactive)	> 100 µM (inactive)	> 100 µM (inactive)	> 100 µM (inactive)	> 100 µM (inactive)		> 100 µM (inactive)	> 100 µM (inactive)	59.4 µM (inactive)		> 100 µM (inactive)	> 100 µM (inactive)	> 100 µM (inactive)	> 100 µM (inactive)	> 100 µM (inactive)	> 100 µM (inactive)	51.1 µM (inactive)
COC(=O)NC1(NC(=O)OC)NC(=O)c2cc(OC)c(OC)cc2N1		35.8 µM (inactive)	50.2 µM (inactive)	32.5 µM (inactive)	45 µM (inactive)		32.1 µM (inactive)	5.21 µM (inactive)	29.4 µM (inactive)	78.7 µM (inactive)	30.1 µM (inactive)		40 µM (inactive)	61.8 µM (inactive)	31.5 µM (inactive)	32.6 µM (inactive)	25.4 µM (inactive)	19.2 µM (inactive)		
CC(N)Cc1cccc(C(F)(F)F)c1 (centres undefined)	> 100 µM (inactive)	> 100 µM (inactive)	> 100 µM (inactive)	> 100 µM (inactive)	> 100 µM (inactive)	> 100 µM (inactive)	> 100 µM (inactive)	> 100 µM (inactive)		> 100 µM (inactive)	> 100 µM (inactive)	> 100 µM (inactive)	> 100 µM (inactive)	> 100 µM (inactive)		> 100 µM (inactive)	> 100 µM (inactive)	> 100 µM (inactive)		> 100 µM (inactive)
C=C(C)C(O)CCC1(C)C=Cc2c(c(C)cc3c2[nH]c2ccccc23)O1 (centres undefined)	7.01 µM (inactive)	5.85 µM (inactive)	10.7 µM (inactive)	9.77 µM (inactive)	8.17 µM (inactive)	16.5 µM (inactive)	17.1 µM (inactive)	7.74 µM (inactive)	3.17 µM (inactive)	9.93 µM (inactive)	4.8 µM (inactive)	3.3 µM (inactive)	6.87 µM (inactive)	7.4 µM (inactive)	8.81 µM (inactive)	4.91 µM (inactive)	8.47 µM (inactive)			7.01 µM (inactive)
N#C/C(=C/NC(N)=S)C(N)=O	> 100 µM (inactive)	> 100 µM (inactive)	> 100 µM (inactive)		> 100 µM (inactive)	> 100 µM (inactive)	> 100 µM (inactive)			> 100 µM (inactive)		> 100 µM (inactive)	> 100 µM (inactive)	> 100 µM (inactive)	> 100 µM (inactive)	> 100 µM (inactive)		> 100 µM (inactive)	> 100 µM (inactive)	> 100 µM (inactive)
